According to PubChem BioAssay AID250 (DTP/NCI, 2004):
Several values for one entry are separate records, joined by “and”; a condition that tells them apart may be missing. Identical values can stand only once. Inconclusive results and toxic doses are left out.

Test system: BDF1 mice, L1210 leukemia sc, survival T/C
Test: NCI In Vivo Anticancer Drug Screen. Data for tumor model L1210 Leukemia (subcutaneous) in B6D2F1 (BDF1) mice
Conditions: endpoint: median survival time, higher = longer survival
Procedure: The antitumor activity of compounds was measured in mice bearing transplantable tumors. Survival or tumor size were measured and the results are expressed as the measurement made in the treated group (T) divided by the measurement made in the vehicle treated control group (C). The tumor model used in this assay is L1210 Leukemia (subcutaneous) in B6D2F1 (BDF1) mice

[1] = dose: 5.0 mg/kg/injection, schedule: Q01DX Z (sc), vehicle: saline
[2] = dose: 8.4 mg/kg/injection, schedule: Q01DX Z (sc), vehicle: saline
[3] = dose: 23.0 mg/kg/injection, schedule: Q01DX Z (sc), vehicle: water
[4] = dose: 39.0 mg/kg/injection, schedule: Q01DX Z (sc), vehicle: water
[5] = dose: 39.0 mg/kg/injection, schedule: Q01DX Z (sc), vehicle: methylcellulose (MC)
[6] = dose: 65.0 mg/kg/injection, schedule: Q01DX Z (sc), vehicle: methylcellulose (MC)
[7] = dose: 108.0 mg/kg/injection, schedule: Q01DX Z (sc), vehicle: methylcellulose (MC)
[8] = dose: 8.4 mg/kg/injection, schedule: Q01DX Z (sc), vehicle: water
[9] = dose: 14.0 mg/kg/injection, schedule: Q01DX Z (sc), vehicle: water
[10] = dose: 65.0 mg/kg/injection, schedule: Q01DX Z (sc), vehicle: water
[11] = dose: 108.0 mg/kg/injection, schedule: Q01DX Z (sc), vehicle: water

SMILES: CC1CCC(NC(=O)N(CCCl)N=O)CC1 (stereo not given)
- T/C (dose: 5.0 mg/kg/injection, schedule: Q03HX008 (sc), vehicle: saline): 322 % of control and 333 % of control
- T/C (dose: 6.25 mg/kg/injection, schedule: Q04DX008 (sc), vehicle: saline): 681 % of control and 690 % of control
- T/C (dose: 12.5 mg/kg/injection, schedule: Q01DX001 (sc), vehicle: saline): 120 % of control
- T/C (dose: 12.5 mg/kg/injection, schedule: Q04DX008 (sc), vehicle: saline): 370 % of control and 403 % of control
- T/C (dose: 25.0 mg/kg/injection, schedule: Q04DX008 (sc), vehicle: saline): 119 % of control and 120 % of control
- T/C (dose: 50.0 mg/kg/injection, schedule: Q04DX001 (sc), vehicle: saline): 215 % of control and 257 % of control
- T/C (dose: 50.0 mg/kg/injection, schedule: Q04DX008 (sc), vehicle: saline): 104 % of control and 105 % of control
- T/C (dose: 100.0 mg/kg/injection, schedule: Q04DX001 (sc), vehicle: saline): 230 % of control
- T/C (dose: 200.0 mg/kg/injection, schedule: Q04DX001 (sc), vehicle: saline): 120 % of control and 121 % of control
- T/C (dose: 400.0 mg/kg/injection, schedule: Q04DX001 (sc), vehicle: saline): 150 % of control and 151 % of control

SMILES: O=C(Nc1ccc(C2=NCCN2)cc1)c1ccc(C(=O)Nc2ccc(C3=NCCN3)cc2)c([N+](=O)[O-])c1
- T/C (dose: 3.0 mg/kg/injection, schedule: Q01DX Z (sc), vehicle: saline): 100 % of control
- T/C [1]: 109 % of control
- T/C [2]: 104 % of control and 109 % of control
- T/C (dose: 14.0 mg/kg/injection, schedule: Q01DX Z (sc), vehicle: saline): 104 % of control
- T/C (dose: 23.0 mg/kg/injection, schedule: Q01DX Z (ip), vehicle: water): 100 % of control
- T/C (dose: 23.0 mg/kg/injection, schedule: Q01DX Z (sc), vehicle: saline): 118 % of control
- T/C [3]: 100 % of control
- T/C (dose: 39.0 mg/kg/injection, schedule: Q01DX Z (ip), vehicle: water): 160 % of control
- T/C [4]: 115 % of control
- T/C (dose: 65.0 mg/kg/injection, schedule: Q01DX Z (ip), vehicle: water): 180 % of control
- T/C (dose: 65.0 mg/kg/injection, schedule: Q01DX Z (sc), vehicle: saline): 114 % of control and 209 % of control

SMILES: CC[C@H](c1ccc(O)cc1)[C@@H](CC)c1ccc(O)cc1
- T/C [5]: 100 % of control
- T/C [6]: 100 % of control
- T/C [7]: 100 % of control

SMILES: O=C(Nc1ccc(C2=NCCN2)cc1)c1cccc(C(=O)Nc2ccc(C3=NCCN3)cc2)c1
- T/C [8]: 110 % of control
- T/C [9]: 230 % of control
- T/C [3]: 235 % of control
- T/C [4]: 270 % of control
- T/C [10]: 265 % of control
- T/C [11]: 270 % of control

SMILES: CC(=O)OCC(=O)[C@@]1(O)CC[C@H]2[C@@H]3CCC4=CC(=O)CC[C@]4(C)[C@@]3(F)[C@@H](O)C[C@@]21C
- T/C [5]: 100 % of control
- T/C [6]: 100 % of control
- T/C [7]: 100 % of control
- T/C (dose: 180.0 mg/kg/injection, schedule: Q01DX Z (sc), vehicle: methylcellulose (MC)): 104 % of control
- T/C (dose: 300.0 mg/kg/injection, schedule: Q01DX Z (sc), vehicle: methylcellulose (MC)): 100 % of control
- T/C (dose: 500.0 mg/kg/injection, schedule: Q01DX Z (sc), vehicle: methylcellulose (MC)): 100 % of control

SMILES: O=NN(CCCl)C(=O)NC1CCCCC1
- T/C (dose: 2.5 mg/kg/injection, schedule: Q01DX009 (sc), vehicle: other): 123 % of control
- T/C (dose: 3.0 mg/kg/injection, schedule: Q01DX Z (sc), vehicle: carboxymethylcellulose (CMC)): 110 % of control
- T/C (dose: 5.0 mg/kg/injection, schedule: Q01DX009 (sc), vehicle: other): 158 % of control
- T/C (dose: 5.0 mg/kg/injection, schedule: Q01DX Z (oral), vehicle: carboxymethylcellulose (CMC)): 221 % of control
- T/C (dose: 5.0 mg/kg/injection, schedule: Q01DX Z (sc), vehicle: carboxymethylcellulose (CMC)): 120 % of control
- T/C (dose: 8.0 mg/kg/injection, schedule: Q01DX009 (ip), vehicle: other): 152 % of control
- T/C (dose: 8.4 mg/kg/injection, schedule: Q01DX Z (oral), vehicle: carboxymethylcellulose (CMC)): 447 % of control
- T/C (dose: 8.4 mg/kg/injection, schedule: Q01DX Z (sc), vehicle: carboxymethylcellulose (CMC)): 315 % of control and 421 % of control
- T/C (dose: 8.4 mg/kg/injection, schedule: Q07DX Z (sc), vehicle: carboxymethylcellulose (CMC)): 100 % of control
- T/C (dose: 10.0 mg/kg/injection, schedule: Q01DX009 (sc), vehicle: other): 160 % of control
- T/C (dose: 14.0 mg/kg/injection, schedule: Q01DX001 (sc), vehicle: carboxymethylcellulose (CMC)): 120 % of control
- T/C (dose: 14.0 mg/kg/injection, schedule: Q01DX Z (oral), vehicle: carboxymethylcellulose (CMC)): 410 % of control
- T/C (dose: 14.0 mg/kg/injection, schedule: Q01DX Z (sc), vehicle: carboxymethylcellulose (CMC)): 400 % of control and 560 % of control
- T/C (dose: 14.0 mg/kg/injection, schedule: Q07DX Z (sc), vehicle: carboxymethylcellulose (CMC)): 165 % of control
- T/C (dose: 20.0 mg/kg/injection, schedule: Q01DX009 (sc), vehicle: other): 163 % of control
- T/C (dose: 23.0 mg/kg/injection, schedule: Q01DX001 (sc), vehicle: carboxymethylcellulose (CMC)): 150 % of control
- T/C (dose: 23.0 mg/kg/injection, schedule: Q01DX Z (oral), vehicle: carboxymethylcellulose (CMC)): 215 % of control
- T/C (dose: 23.0 mg/kg/injection, schedule: Q01DX Z (sc), vehicle: carboxymethylcellulose (CMC)): 265 % of control and 273 % of control
- T/C (dose: 23.0 mg/kg/injection, schedule: Q07DX Z (sc), vehicle: carboxymethylcellulose (CMC)): 170 % of control
- T/C (dose: 32.0 mg/kg/injection, schedule: Q01DX009 (ip), vehicle: other): 120 % of control
- T/C (dose: 39.0 mg/kg/injection, schedule: Q01DX001 (sc), vehicle: carboxymethylcellulose (CMC)): 295 % of control
- T/C (dose: 39.0 mg/kg/injection, schedule: Q01DX Z (oral), vehicle: carboxymethylcellulose (CMC)): 157 % of control
- T/C (dose: 39.0 mg/kg/injection, schedule: Q07DX Z (sc), vehicle: carboxymethylcellulose (CMC)): 750 % of control
- T/C (dose: 65.0 mg/kg/injection, schedule: Q01DX001 (sc), vehicle: carboxymethylcellulose (CMC)): 355 % of control
- T/C (dose: 65.0 mg/kg/injection, schedule: Q07DX Z (sc), vehicle: carboxymethylcellulose (CMC)): 330 % of control
- T/C (dose: 108.0 mg/kg/injection, schedule: Q01DX001 (sc), vehicle: carboxymethylcellulose (CMC)): 750 % of control

SMILES: COc1cc([C@@H]2c3cc4c(cc3[C@H](OC(=O)CCCC(=O)O)[C@H]3COC(=O)[C@H]23)OCO4)cc(OC)c1OC
- T/C (dose: 5.0 mg/kg/injection, schedule: Q01DX Z (sc), vehicle: water): 100 % of control
- T/C [8]: 109 % of control
- T/C [9]: 113 % of control
- T/C [3]: 113 % of control
- T/C [4]: 118 % of control
- T/C [10]: 118 % of control
- T/C [11]: 118 % of control

SMILES: Nc1ccn(C2OC(COP(=O)(O)O)C(O)C2O)c(=O)n1 (stereo not given)
- T/C (dose: 3.5 mg/kg/injection, schedule: Q01DX Z (sc), vehicle: other): 200 % of control
- T/C (dose: 5.8 mg/kg/injection, schedule: Q01DX Z (sc), vehicle: other): 244 % of control
- T/C (dose: 9.7 mg/kg/injection, schedule: Q01DX Z (sc), vehicle: other): 272 % of control
- T/C (dose: 16.2 mg/kg/injection, schedule: Q01DX Z (sc), vehicle: other): 300 % of control
- T/C (dose: 27.0 mg/kg/injection, schedule: Q01DX Z (sc), vehicle: other): 350 % of control
- T/C (dose: 45.1 mg/kg/injection, schedule: Q01DX Z (sc), vehicle: other): 305 % of control
- T/C (dose: 75.1 mg/kg/injection, schedule: Q01DX Z (sc), vehicle: other): 205 % of control

SMILES: CC(=O)NC1=C(N2CC2)C(=O)C(NC(C)=O)=C(N2CC2)C1=O
- T/C (dose: 1.08 mg/kg/injection, schedule: Q01DX Z (sc), vehicle: saline): 213 % of control
- T/C (dose: 1.8 mg/kg/injection, schedule: Q01DX Z (sc), vehicle: saline): 163 % of control
- T/C [1]: 118 % of control
- T/C [2]: 109 % of control
